One assay concerns Escherichia coli. The class given is cell-based.
In another assay the test system is Bacillus subtilis. The class given is cell-based.

“tachyplesin I (KWCFRVCYRGICYRRCR; not fully specified; Tachyplesin-1; UniProt P14213 24-40, looked up) [TPI-1]”: the “MIC against E.coli” value in the assay with Escherichia coli was 4 µg/mL. In addition, the “MIC against B. subtilis” value in the assay with Bacillus subtilis turned out to be 4 µg/mL.

The record behind these values is paper PMC8163063 (Chemical Science, 2020).
